Values quoted from earlier work as cited in patent publication US9814239B2, “Antimicrobial complexes” (priority 2010, dated 2017).

Columns and labels:
Bacillus subtilis = details: Gram Positive
Staphylococcus aureus = details: Gram Positive
Streptococcus faecalis = details: Gram Positive
Escherichia coli = details: Gram Negative
Proteus vulgaris = details: Gram Negative
Pseudomonas aeruginosa = details: Gram Negative
Salmonella typhimurium = details: Gram Negative
Aspergillus niger = details: Molds
Endomycopsis albicans = details: Yeasts
Saccharomyces cerevisiae = details: Amoeba (so in the source)

In the case of `[O-][n+]1ccccc1S` [Sodium Omadine, sodium omadine], the “Bactericide concentration (ppm)” value (Bacillus subtilis) is listed as 0.5 ppm, the “Bactericide concentration (ppm)” value (Staphylococcus aureus) is listed as 16 ppm and the “Bactericide concentration (ppm)” value (Streptococcus faecalis) is listed as 2 ppm. For the same compound, the “Bactericide concentration (ppm)” value (Escherichia coli) was 16 ppm, the “Bactericide concentration (ppm)” value (Proteus vulgaris) was 8 ppm and the “Bactericide concentration (ppm)” value (Pseudomonas aeruginosa) was 128 ppm. For the same compound, the “Bactericide concentration (ppm)” value (Salmonella typhimurium) was 16 ppm, the “Fungicide concentration (ppm)” value (Aspergillus niger) was under 0.25 ppm and the “Fungicide concentration (ppm)” value (Endomycopsis albicans) was under 0.25 ppm. For the same compound, the “Fungicide concentration (ppm)” value (Saccharomyces cerevisiae) was under 0.25 ppm.
